{
  "source": "patent US9066965B1",
  "about": "“Purified limonin glucoside for prevention and treatment of chronic diseases” (The United States of America, as represented by the …, priority 2012, dated 2015)",
  "key": {"[1]": {"system": "alkaline phosphatase (ALP)", "settings": "500 mg/d, 56 days", "method": "(§1) CMP performed on serum samples at the chemistry laboratory of University of California Medical Center by using the Beckman Coulter DxC800. GGT and CKMB were determined in the EDTA plasma. GGT activity was determined by using Integra 400 Chemistry Analyzer, Roche Diagnostics. CKMB concentration was determined by using the Multiplex kits from Mesoscale Discovery (Gaithersburg, Md. 20877).\n(§2) SAS PROC MIXED was used to fit the cross-over model (Littell R C, Milliken G A, Stroup W W, Wolfinger R D, Schabenberger O. SAS System for Mixed Models. Cay, N.C.: SAS Institute Inc.; 2006). Transformations were used when appropriate to stabilize the variances among the diets and periods. The fixed effects were order, diet, the interaction and the covariate; and the random effect was subjects within order. The test for order is a test for carry-over effect. […] Comparisons were made between the values at the end of placebo and LG treatments and using the baseline data as a covariate. Results are presented as means±SEM. Differences were considered statistically significant for P value<0.05."}, "[2]": {"system": "alanine amino transferase (ALT)", "assay": "Serum alanine amino transferase (CMP)", "format": "in vivo, human", "settings": "500 mg/d, 56 days", "method": "as §1, §2"}, "[3]": {"assay": "Lipoprotein size and sub fraction concentrations by NMR", "format": "in vivo, human", "method": "Mean particle size, total number of particles and their number within different subclasses of VLDL, LDL, and HDL, were determined by NMR methods. For this analysis frozen plasma samples were shipped in dry ice by overnight delivery to LipoScience Inc., who performed the analysis.\n(§3) Results are presented as means±SEM."}, "[4]": {"assay": "Serum lipids and lipoproteins", "format": "in vivo, human", "excerpt": "Serum lipids were part of the CMP performed at University of California Medical Center (UCDMC) by using the Beckman Coulter DxC800 instrument. Lipoproteins A1 and B were ascertained in EDTA plasma using a Cobas Integra 400 Plus instrument with Roche reagents (Roche Diagnostics Corp., Indianapolis, Ind.). Lipoproteins C2, C3 and E were quantified in serum using a Cobas Integra 400 Plus instrument with Kamiya reagents (Kamiya Biomedical Co., Seattle, Wash.).\nas §3"}, "[5]": {"assay": "Comprehensive metabolic panel (CMP) on serum", "format": "in vivo, human", "method": "as §1, §2"}, "[6]": {"system": "gamma glutamyl transferase (GGT)", "assay": "Plasma GGT activity (Integra 400)", "format": "in vivo, human", "settings": "56 days", "method": "as §1, §2"}, "[7]": {"settings": "serum, End LG, n = 10, mean ± SEM"}, "[8]": {"settings": "plasma, NMR, End LG, 500 mg/d, 56 days, n = 10, mean ± SEM"}, "[9]": {"settings": "End LG, 500 mg/d, 56 days, n = 10, mean ± SEM"}, "[10]": {"settings": "serum, End LG, 500 mg/d, 56 days, n = 10, mean ± SEM"}},
  "note": "“And” between values parts separate entries of the source, which are not always exact repeats. Equal values may be shown once.",
  "data": [
    {"smiles": "CC1(C)O[C@H]2CC(=O)OC[C@]23[C@H]2CC[C@@](C)([C@@H](O[C@@H]4O[C@H](CO)[C@@H](O)[C@H](O)[C@H]4O)c4ccoc4)[C@@]4(O[C@@H]4C(=O)O)[C@]2(C)C(=O)C[C@@H]13", "note": "[LG, limonin glucoside]", "values": [
      {"measurement": "Alkaline phosphatase", "setting": "[1]; [7]", "result": "59.5 ± 3.47", "unit": "U/L"},
      {"measurement": "decrease of serum alkaline phosphatase (ALP) activity", "setting": "[1]; vs end of placebo treatment, p=0.025", "result": 10.1, "unit": "%"},
      {"measurement": "Alanine amino trasferase", "setting": "[2]; [7]", "result": "25.2 ± 5.08", "unit": "U/L"},
      {"measurement": "decrease of serum alanine aminotransferase (ALT) activity", "setting": "[2]; vs end of placebo treatment, p=0.041", "result": 13.1, "unit": "%"},
      {"measurement": "Calculated TG total", "setting": "[3]; [8]", "result": "150.50 ± 22.84", "unit": "mg/dL"},
      {"measurement": "Calculated cholesterol total", "setting": "[3]; [8]", "result": "208.50 ± 5.45", "unit": "mg/dL"},
      {"measurement": "HDL cholesterol total", "setting": "[3]; [8]", "result": "46.10 ± 2.65", "unit": "mg/dL"},
      {"measurement": "IDL cholesterol", "setting": "[3]; [8]", "result": "8.93 ± 1.83", "unit": "mg/dL"},
      {"measurement": "IDL particles", "setting": "[3]; [8]", "result": "71.80 ± 14.77", "unit": "nmols/L"},
      {"measurement": "LDL total cholesterol", "setting": "[3]; [8]", "result": "137.60 ± 5.14", "unit": "mg/dL"},
      {"measurement": "Large HDL cholesterol", "setting": "[3]; [8]", "result": "20.19 ± 3.24", "unit": "mg/dL"},
      {"measurement": "Large HDL particles", "setting": "[3]; [8]", "result": "6.57 ± 0.99", "unit": "μmols/L"},
      {"measurement": "Large LDL cholesterol", "setting": "[3]; [8]", "result": "67.24 ± 9.75", "unit": "mg/dL"},
      {"measurement": "Large LDL particles", "setting": "[3]; [8]", "result": "495.80 ± 71.47", "unit": "nmols/L"},
      {"measurement": "Large VLDL & chylomicron TG", "setting": "[3]; [8]", "result": "33.01 ± 13.18", "unit": "mg/dL"},
      {"measurement": "Large VLDL & chylomicron particles", "setting": "[3]; [8]", "result": "3.50 ± 1.64", "unit": "nmol/L"},
      {"measurement": "Mean particle size (HDL particles)", "setting": "[3]; [8]", "result": "8.86 ± 0.12", "unit": "nm"},
      {"measurement": "Mean particle size (LDL particles)", "setting": "[3]; [8]", "result": "20.94 ± 0.26", "unit": "nm"},
      {"measurement": "Mean particle size (VLDL & chylomicron particles)", "setting": "[3]; [8]", "result": "48.60 ± 2.25", "unit": "nm"},
      {"measurement": "Medium HDL cholesterol", "setting": "[3]; [8]", "result": "5.87 ± 1.87", "unit": "mg/dL"},
      {"measurement": "Medium HDL particles", "setting": "[3]; [8]", "result": "4.54 ± 1.43", "unit": "μmols/L"},
      {"measurement": "Medium VLDL & chylomicron particles", "setting": "[3]; [8]", "result": "37.70 ± 8.22", "unit": "nmol/L"},
      {"measurement": "Medium VLDL TG", "setting": "[3]; [8]", "result": "53.08 ± 11.93", "unit": "mg/dL"},
      {"measurement": "Medium small LDL cholesterol", "setting": "[3]; [8]", "result": "22.60 ± 3.80", "unit": "mg/dL"},
      {"measurement": "Medium small LDL particles", "setting": "[3]; [8]", "result": "208.40 ± 35.06", "unit": "nmols/L"},
      {"measurement": "Small HDL cholesterol", "setting": "[3]; [8]", "result": "20.03 ± 1.91", "unit": "mg/dL"},
      {"measurement": "Small HDL particles", "setting": "[3]; [8]", "result": "20.25 ± 1.94", "unit": "μmols/L"},
      {"measurement": "Small LDL cholesterol", "setting": "[3]; [8]", "result": "61.47 ± 10.32", "unit": "mg/dL"},
      {"measurement": "Small VLDL & chylomicron particles", "setting": "[3]; [8]", "result": "45.47 ± 5.95", "unit": "nmol/L"},
      {"measurement": "Small VLDL TG", "setting": "[3]; [8]", "result": "20.32 ± 2.64", "unit": "mg/dL"},
      {"measurement": "Total HDL particles", "setting": "[3]; [8]", "result": "31.35 ± 0.95", "unit": "μmols/L"},
      {"measurement": "Total LDL particle", "setting": "[3]; [8]", "result": "1582.80 ± 118.15", "unit": "nmols/L"},
      {"measurement": "Total VLDL & chylomicron particles", "setting": "[3]; [8]", "result": "86.69 ± 13.15", "unit": "nmol/L"},
      {"measurement": "Total small LDL particles", "setting": "[3]; [8]", "result": "1015.20 ± 169.46", "unit": "nmols/L"},
      {"measurement": "VLDL & chylomicron total TG", "setting": "[3]; [8]", "result": "106.50 ± 22.20", "unit": "mg/dL"},
      {"measurement": "Very small LDL cholesterol", "setting": "[3]; [8]", "result": "38.91 ± 6.55", "unit": "mg/dL"},
      {"measurement": "Very small LDL particles", "setting": "[3]; [8]", "result": "806.80 ± 134.82", "unit": "nmols/L"},
      {"measurement": "effect on mean particle sizes and sub-fraction concentrations of VLDL, LDL, HDL", "setting": "[3]; vs end of placebo treatment", "result": "did not alter"},
      {"measurement": "Lipoprotein A1", "setting": "[4]; [9]", "result": "142.91 ± 4.18", "unit": "mg/dL"},
      {"measurement": "Lipoprotein B", "setting": "[4]; [9]", "result": "114.5 ± 6.45", "unit": "mg/dL"},
      {"measurement": "Lipoprotein C2", "setting": "[4]; [9]", "result": "6.21 ± 0.50", "unit": "mg/dL"},
      {"measurement": "Lipoprotein C3", "setting": "[4]; [9]", "result": "13.28 ± 1.05", "unit": "mg/dL"},
      {"measurement": "Lipoprotein E", "setting": "[4]; [9]", "result": "4.91 ± 0.32", "unit": "mg/dL"},
      {"measurement": "change in plasma concentrations of Apo B", "setting": "[4]; Table 4", "result": "did not find any change"},
      {"measurement": "Cholesterol", "setting": "[4]; [10]", "result": "231.70 ± 8.83", "unit": "mg/dL"},
      {"measurement": "HDL-C", "setting": "[4]; [10]", "result": "44.20 ± 2.59", "unit": "mg/dL"},
      {"measurement": "LDL-C (Calc)", "setting": "[4]; [10]", "result": "159.10 ± 7.37", "unit": "mg/dL"},
      {"measurement": "Non-HDL-C", "setting": "[4]; [10]", "result": "187.50 ± 10.63", "unit": "mg/dL"},
      {"measurement": "Total-C:HDL-C", "setting": "[4]; [10]", "result": "5.47 ± 0.47"},
      {"measurement": "Triglycerides", "setting": "[4]; [10]", "result": "142.60 ± 23.64", "unit": "mg/dL"},
      {"measurement": "effect on serum total-, HDL-, LDL-, non-HDL-cholesterol, triglycerides, lipoproteins A1, B, C2, C3, E", "setting": "[4]; vs end of placebo treatment", "result": "did not alter"},
      {"measurement": "Albumin", "setting": "[5]; [10]", "result": "3.95 ± 0.05", "unit": "g/dL"},
      {"measurement": "Aspartate amino transferase", "setting": "[5]; [10]", "result": "23.3 ± 2.22", "unit": "U/L"},
      {"measurement": "CO2", "setting": "[5]; [10]", "result": "29.10 ± 0.48", "unit": "mEq/L"},
      {"measurement": "Calcium", "setting": "[5]; [10]", "result": "9.42 ± 0.06", "unit": "mg/dL"},
      {"measurement": "Chloride", "setting": "[5]; [10]", "result": "104.80 ± 0.81", "unit": "mEq/L"},
      {"measurement": "Creatinine", "setting": "[5]; [10]", "result": "0.84 ± 0.03", "unit": "mg/dL"},
      {"measurement": "Glucose", "setting": "[5]; [10]", "result": "89.7 ± 2.58", "unit": "mg/dL"},
      {"measurement": "Lactate dehydrogenase", "setting": "[5]; [10]", "result": "126.80 ± 8.90", "unit": "U/L"},
      {"measurement": "Potassium", "setting": "[5]; [10]", "result": "4.61 ± 0.12", "unit": "mEq/L"},
      {"measurement": "Protein", "setting": "[5]; [10]", "result": "6.59 ± 0.08", "unit": "g/dL"},
      {"measurement": "Sodium", "setting": "[5]; [10]", "result": "140.80 ± 0.68", "unit": "mEq/L"},
      {"measurement": "Total bilirubin", "setting": "[5]; [10]", "result": "0.81 ± 0.08", "unit": "mg/dL"},
      {"measurement": "Urea", "setting": "[5]; [10]", "result": "11.70 ± 0.92", "unit": "mg/dL"},
      {"measurement": "effect on circulating concentration of AST", "setting": "[5]; vs end of placebo treatment", "result": "did not significantly decrease"},
      {"measurement": "effect on serum albumin, total protein, glucose, aspartate amino transferase, lactate dehydrogenase, calcium, potassium, sodium, chloride, CO2, creatinine, CKMB, total bilirubin, urea", "setting": "[5]; vs end of placebo treatment", "result": "did not alter"},
      {"measurement": "GGT", "setting": "[6]; EDTA plasma, End LG, 500 mg/d, n = 10, mean ± SEM", "result": "25.2 ± 8.0", "unit": "U/L"},
      {"measurement": "decrease of plasma activity of GGT", "setting": "[6]; vs end of placebo treatment, 0.5 g/d, p=0.001", "result": "33.8% and 33%"}
    ]}
  ]
}
